Laboratory results reported in patent publication US9872875B2, “Component and method for treating viral disease” (Institut Pasteur of Shanghai, Chinese Academy of Sciences, priority 2012, dated 2018).

Columns and labels:
[1] = tested on: EV71 M.A.V. (mouse-adapted strain); experiment: EV71 M.A.V. PFU in RD cells; assay type: cell-based, Enterovirus 71; details: Enterovirus A, read-out: EC50 to reduce EV71 M.A.V. PFU in RD cells
Experimental: EV71 M.A.V. was used to infect RD cells cultured in 12-well plates at different E02 concentrations. After cultured for 5 to 7 days, stained and plaque-forming units were calculated. Detailed procedures were the same as the corresponding PFU testing method of Example 1.

[2] = tested on: EV71 clinical isolate EV71 FY573; experiment: Time of E02 addition assay, EV71 in RD cells; assay type: cell-based, Enterovirus 71; details: 32 μM of E02, MOI 10, 18 h
Experimental: RD cells in 96-well plates were infected with MOI 10 EV71 clinical isolate EV71 FY573. In three periods at prior to, during, and post infection, 32 μM of E02 (dissolved in DMEM) or DMEM were added, EV71 replication was measured to determine the stage, in which E02 inhibits EV71 infection. Steps are detailed as follows:
(1) Cell seeding: 24 h prior to infection, RD cells were seeded in 96-well cell culture plates, 5×10^4 cells per well;
(2) Cells pre-incubated with drug: cell culture medium was removed from 96-well plates, each well was added 100 μl of DMEM, and then added 11 μl of 320 μM E02 solution (cell group treated with drug) or 11 μl of DMEM (cell group without drug treatment), incubated at 37° C. for 1 h.
(3) Virus pre-incubated with drug: virus stock solution was diluted to 5×10^6 TCID50/ml with DMEM, dispensed to 96-well plates at 100 μl per well, and 11 μl of 320 μM E02 solution (B and C groups) or 11 μl of DMEM (A and F groups) were added, and incubated at 37° C. for 1 h.
(4) Infection: After cells and virus were incubated for one hour, drug was discarded from cell culture plates. 111 μl of pre-incubated virus with drug (B and C groups) or DMEM (A and F groups) was transferred to cell culture plates. After 100 μl of virus solution was transferred to D and E groups, 11 μl of 320 μM E02 was added, and incubated at 37° C. for 1 h.
(5) One hour after viral infection of cells, virus and drug mixture was discarded from cell culture plates. Cells were washed twice with 50 μl of DMEM. 180 μl per well of DMEM containing 2% FBS, 20 μl of 320 μM E02 solution (B, E, and F groups) or 20 μl of DMEM (A, C, and D groups) were added. […]
(7) Viral load determination: EV71 5′UTR gene was detected using ABI Taqman one-step RT-PCR kit (ABI taqMan® One-Step RT-PCR, Cat #4309169) in ABI 7900HT 384-well plates PCR system. […]
(8) PCR standard curves were used to convert CT values of PCR to viral load (standard curves were obtained by CT values determined by performing RT-PCR on RNA extracted from viruses with defined titers at 10-fold serial dilutions). […]

EV71 isolate SEP-4 = experiment: EV71 SEP-4 replication in Vero cells, quantitative RT-PCR; assay type: cell-based, Enterovirus 71; details: SEP-4, Vero cells, MOI 0.1, 46 h
Experimental: Vero cells were infected with EV71 SEP-4 virus strain (provided by Institut Pasteur of Cambodia, Cambodia strain) at different E02 concentrations, at the MOI of 0.1. After cultured for 46 h, viral RNA in culture supernatant was extracted. Relative EV71 viral load was determined by quantitative RT-PCR. For specific procedures, refer to Example 1.

CVA16 = CVA16 infection in ICR newborn mice, viral RNA in tissues and serum; assay type: in vivo; details: 50 mg/kg of E02 intraperitoneally; 6 days after infection
Experimental: 5×10^6 TCID50 CVA16 viruses (50 μl) were injected to infect two three-day-old ICR newborn mice. Five days after infection, serum and tissues (brain, bone marrow, heart, intestine, kidney, liver, lung, muscle, spleen, and thymus) were collected. Viral RNA in serum was extracted (viral RNA extraction kit, QIAGEN QIAamp Viral RNA Mini Kit, cat #52906). Tissue samples were placed in RNAstore preservation solution (Tiangen, DP408-02) and stored in −80° C. refrigerator. Total tissue RNA was extracted using tissue RNA extraction kit (RNAprep pure total animal tissue RNA extraction kit). Copies of CVA16 viral genome and GAPDH gene were detected using one-step real-time quantitative RT-PCR kit (QIAGEN QuantiTect SYBR Green RT-PCR Kit) in ABI 7900HT 384-well plate PCR system. Primers are the same as that of EV71 5′UTR primers. See Table 3 and Table 4 for reaction system and PCR program. See FIG. 8 for relative viral load in each tissue and serum. Clearly, CVA16 virus was detected mainly in brain, spinal cord, muscle, and serum.
Three-day-old ICR newborn mice were infected with CVA16 to test E02's efficacy to inhibit EV71 in vivo. Test mice were divided into three groups: drug group, infection group, and placebo group. […] RNA from tissues and serum were extracted and CVA16 viral RNA determined Treatment procedures were the same as previously described in “1.”

[3] = tested on: EV71 M.A.V. (mouse-adapted strain); experiment: EV71 M.A.V. TCID50 in RD cells; assay type: cell-based, Enterovirus 71
Excerpt: EV71 M.A.V. in 10-fold serial dilutions was used to infect RD cells at different E02 concentrations. After cultured for 3-4 days, CPE was observed under optical microscope, and stained with crystal violet, to calculate 50% tissue culture infective dose. Specific steps are similar to that for testing corresponding TCID50 of Example 1.

## Cc1ccc(C(=O)Nc2ccc(S(=O)(=O)O)c3cc(S(=O)(=O)O)cc(S(=O)(=O)O)c23)cc1NC(=O)c1cccc(NC(=O)Nc2cccc(C(=O)Nc3cc(C(=O)Nc4ccc(S(=O)(=O)O)c5cc(S(=O)(=O)O)cc(S(=O)(=O)O)c45)ccc3C)c2)c1 [E02, Suramin Sodium]
[1]
  EC50: 2 µM
[2]
  inhibition of EV71 infection, E02 added after infection (F): could not inhibit EV71 infection
  inhibition of EV71 infection, E02 added during infection (D, E): can inhibit EV71 infection
  inhibition of EV71 infection, E02 added prior to infection (B, C): can inhibit EV71 infection
EV71 isolate SEP-4
  concentration reducing EV71 replication by 10-fold: 5.89 μM
  concentration reducing EV71 replication by 100-fold: 15.49 µM
CVA16
  CVA16 RNA in brain, bone marrow, muscle and serum: significantly decreased
[3]; 10 μM of E02
  inhibition of EV71 mouse adapted strain infection of RD cells: completely inhibit
[3]; Enterovirus A, EV71, RD, read-out: EC50 to reduce EV71 M.A.V. TCID50 in RD cells
  EC50: 8.07 µM
